Assay results reported in patent publication US7888393B2, “Transdermal compositions” (Microdermis Corporation, priority 2002, dated 2011).
Values belong to the compound of their own block, whether it stands above or below them.

Assays:
[1] = tested on: open wounds; assay: Seventh transdermal composition on open wounds of patients (healing, pain); type: in vivo
Description: As one skilled in the art can well appreciate there are endless numbers of combinations that can be made to create the desired skin effects. For example, when the quaternary ammonium salt, such as […] (DDAC), and the like, is present in a neutral pH in the first transdermal composition of the present invention described hereinabove, the formic acid from the bug bite is more effectively and more rapidly neutralized. On the other hand, when the quaternary ammonium salt, e.g., DDAC, is present in the seventh transdermal composition of the present invention, the healing rate on open wounds improves. However, when the quaternary ammonium salt, e.g., DDAC, is not substantially converted to the first reaction product, some of the patients, approximately 25% thereof, feel pain.

[2] = pH of quaternary compounds, fatty acids and their reaction products in water (calibrated pH meter); type: physicochemical; settings: for pH of product compound (reaction of quaternary compound with fatty acid): molar ratio DDAC to fatty acid 1:1, 70-75 °C, after 10 minutes
Procedure: Example 2 was repeated employing the fatty acids; Conjugated Linoleic Acid (CLA); eicosapentaenoic acid (EPA); and gamma linolenic acid (GLA), were all dissolved in water and the pH of the resulting solutions were measured with a calibrated pH meter.
Three solutions of DDAC (188.2 g) in distilled water (2,000 g) were contacted with masses of CLA, EPA and GLA, such that the molar ratio of DDAC to each of the aforementioned fatty acids was 1:1 at a temperature of 70° C. to 75° C. and after 10 minutes the pH of the reaction products of each of these products was measured.
Merquat 550 is a trademark owned by Calgon, Inc. its manufacturer, for a proprietary cationic polymer having a repeating unit molecular weight of 680 and an overall molecular weight of about 10,000. The pH of these first transdermal compositions were measured. […] Ten minutes after acid addition, the pH of the product composition were measured.

[3] = Stability of benzethonium chloride added to the transdermal mixtures; type: physicochemical
Procedure: When benzethonium chloride is added in therapeutically effective amounts to the mixtures described herein, it is stable if added at ambient temperature at a pH greater than 6. On the other hand, it is not stable if added at temperatures below the Freezing Zone and above ambient temperature at a pH of about 7.5 to about 8.

[4] = DDAC split between first reaction product (80%) and unreacted DDAC (20%)

Compound: CCCCCCCCCCCCCCCCCC[N+](C)(C)CCCCCCCCCCCCCCCCCC.[Cl-] [DDAC, dimethyl distearyl ammonium chloride]
- Patients who feel pain ([1]; DDAC not substantially converted to the first reaction product): approximately 25%
- Healing [1, 4]: rapid healing
- Pain [1, 4]: did not feel pain
- pH of quaternary compound in water ([2]; DDAC 188.2 g in distilled water 2,000 g): 5.38

Compound: CC/C=C\C/C=C\C/C=C\CCCCCCCC(=O)[O-].CCCCCCCCCCCCCCCCCC[N+](C)(C)CCCCCCCCCCCCCCCCCC [DDAL, Dimethyl Distearyl Ammonium Linolenate]
- pH of product compound (reaction of quaternary compound with fatty acid) [2]: 2.28

Compound: CC(C)(C)CC(C)(C)c1ccc(OCCOCC[N+](C)(C)Cc2ccccc2)cc1 [benzethonium chloride]
- Stability of benzethonium chloride in the mixture ([3]; added above the Freezing Zone, tip speed greater than Critical Shear Rate, pH about 7.5 to about 8): stable
- Stability of benzethonium chloride in the mixture ([3]; added at ambient temperature at pH greater than 6): stable
- Stability of benzethonium chloride in the mixture ([3]; added below the Freezing Zone and above ambient temperature at pH about 7.5 to about 8): not stable

- pH of fatty acid dissolved in water ([2]; fatty acid alone in water): (4.00)
Compound: Conjugated Linoleic Acid [CLA]

- pH of Quat and Stearic Acid ([2]; 70-75 °C, stearic acid 40 g, ten minutes after acid addition): 2.40
- pH of quaternary compound ([2]; mixed with distilled water (2,000 g), before heating): 7.83
Compound: benzalkonium chloride [BAC]

Compound: dimethyl distearyl ammonium stearate [DDAS]
- pH of product compound (reaction of quaternary compound with fatty acid) [2]: 2.38
